{"source": "the NIST ThermoML archive (doi:10.1016/j.jct.2015.09.029)", "key": {"[1]": {"experiment": "mn = molality of the nth substance listed, in mol/kg", "conditions": "100 kPa, Liquid; for viscosity: Capillary tube (Ostwald / Ubbelohde) method; for speed of sound: Frequency=2 MHz, Linear variable-path acoustic interferometer"}, "[2]": {"conditions": "100 kPa, Liquid, Capillary tube (Ostwald / Ubbelohde) method"}}, "note": "Numbers after ± are expanded uncertainties.", "data": [{"compound": "O", "note": "[water] + CC(C)C[P+](C)(CC(C)C)CC(C)C.Cc1ccc(S(=O)(=O)[O-])cc1", "values": [{"measurement": "viscosity", "setting": "[1]; 298.15 K, m2 = 0", "result": "0.8905 ± 0.019", "unit": "mPa·s"}, {"measurement": "speed of sound", "setting": "[1]; 298.15 K, m2 = 0", "result": "1497.6 ± 4.3", "unit": "m/s"}, {"measurement": "viscosity", "setting": "[1]; 303.15 K, m2 = 0", "result": "0.7977 ± 0.017", "unit": "mPa·s"}, {"measurement": "viscosity", "setting": "[1]; 308.15 K, m2 = 0", "result": "0.7195 ± 0.015", "unit": "mPa·s"}, {"measurement": "viscosity", "setting": "[1]; 313.15 K, m2 = 0", "result": "0.6532 ± 0.014", "unit": "mPa·s"}, {"measurement": "speed of sound", "setting": "[1]; 313.15 K, m2 = 0", "result": "1528.5 ± 4.3", "unit": "m/s"}]}, {"compound": "O", "note": "[water] + CCCC[P+](CCCC)(CCCC)CCCC.[Cl-]", "values": [{"measurement": "viscosity", "setting": "[1]; 298.15 K, m2 = 0", "result": "0.8905 ± 0.019", "unit": "mPa·s"}, {"measurement": "speed of sound", "setting": "[1]; 298.15 K, m2 = 0", "result": "1497.6 ± 4.3", "unit": "m/s"}, {"measurement": "viscosity", "setting": "[1]; 303.15 K, m2 = 0", "result": "0.7977 ± 0.017", "unit": "mPa·s"}, {"measurement": "viscosity", "setting": "[1]; 308.15 K, m2 = 0", "result": "0.7195 ± 0.015", "unit": "mPa·s"}, {"measurement": "viscosity", "setting": "[1]; 313.15 K, m2 = 0", "result": "0.6532 ± 0.014", "unit": "mPa·s"}, {"measurement": "speed of sound", "setting": "[1]; 313.15 K, m2 = 0", "result": "1528.5 ± 4.3", "unit": "m/s"}]}, {"compound": "O", "note": "[water] + CCCC[P+](C)(CCCC)CCCC.COS(=O)(=O)[O-]", "values": [{"measurement": "viscosity", "setting": "[1]; 298.15 K, m2 = 0", "result": "0.8905 ± 0.019", "unit": "mPa·s"}, {"measurement": "speed of sound", "setting": "[1]; 298.15 K, m2 = 0", "result": "1497.6 ± 4.3", "unit": "m/s"}, {"measurement": "viscosity", "setting": "[1]; 303.15 K, m2 = 0", "result": "0.7977 ± 0.017", "unit": "mPa·s"}, {"measurement": "viscosity", "setting": "[1]; 308.15 K, m2 = 0", "result": "0.7195 ± 0.015", "unit": "mPa·s"}, {"measurement": "viscosity", "setting": "[1]; 313.15 K, m2 = 0", "result": "0.6532 ± 0.014", "unit": "mPa·s"}, {"measurement": "speed of sound", "setting": "[1]; 313.15 K, m2 = 0", "result": "1528.5 ± 4.3", "unit": "m/s"}]}, {"compound": "CCCCn1cc[n+](C)c1.[Cl-]", "note": "[1-butyl-3-methylimidazolium chloride] + O", "values": [{"measurement": "viscosity", "setting": "[1]; 298.15 K, m1 = 0.0155", "result": "0.8976 ± 0.019", "unit": "mPa·s"}, {"measurement": "viscosity", "setting": "[1]; 298.15 K, m1 = 0.0257", "result": "0.9023 ± 0.019", "unit": "mPa·s"}, {"measurement": "viscosity", "setting": "[1]; 298.15 K, m1 = 0.0567", "result": "0.9166 ± 0.019", "unit": "mPa·s"}, {"measurement": "viscosity", "setting": "[1]; 298.15 K, m1 = 0.0653", "result": "0.9205 ± 0.019", "unit": "mPa·s"}, {"measurement": "viscosity", "setting": "[1]; 298.15 K, m1 = 0.0782", "result": "0.9265 ± 0.019", "unit": "mPa·s"}, {"measurement": "viscosity", "setting": "[1]; 298.15 K, m1 = 0.0895", "result": "0.9317 ± 0.019", "unit": "mPa·s"}, {"measurement": "viscosity", "setting": "[1]; 298.15 K, m1 = 0.0923", "result": "0.933 ± 0.019", "unit": "mPa·s"}, {"measurement": "viscosity", "setting": "[1]; 298.15 K, m1 = 0.1052", "result": "0.9389 ± 0.02", "unit": "mPa·s"}, {"measurement": "viscosity", "setting": "[1]; 298.15 K, m1 = 0.1123", "result": "0.9422 ± 0.02", "unit": "mPa·s"}]}, {"compound": "O", "note": "[water] + CCCCn1cc[n+](C)c1.[Cl-]", "values": [{"measurement": "viscosity", "setting": "[1]; 298.15 K, m2 = 0", "result": "0.8905 ± 0.019", "unit": "mPa·s"}]}, {"compound": "O", "note": "[water]", "values": [{"measurement": "viscosity", "setting": "[2]; 298.15 K", "result": "0.8905 ± 0.019", "unit": "mPa·s"}, {"measurement": "viscosity", "setting": "[2]; 303.15 K", "result": "0.7977 ± 0.017", "unit": "mPa·s"}, {"measurement": "viscosity", "setting": "[2]; 308.15 K", "result": "0.7195 ± 0.015", "unit": "mPa·s"}, {"measurement": "viscosity", "setting": "[2]; 313.15 K", "result": "0.6532 ± 0.014", "unit": "mPa·s"}]}]}
